In US5130143A, “Use of a low affinity-heparin fraction in conjunction with t-PA for thrombolytic therapy” (The Research Foundation of State University of New York, priority 1988, dated 1992):

Biological target: T1, t-PA (Homo sapiens, UniProt P00750)
T1 construct: The t-PA purified from human melanoma (Bowes) cell culture; host or cells: Bowes human melanoma cell culture (purified t-PA)
Assay: Amidolytic plasmin assay: activation of plasminogen by t-PA (S-2251 substrate)
Format: biochemical
Conditions: no fibrinogen fragments; 0.09 nM t-PA, 0.42 μM plasminogen, 25° C.
Procedure: The assay defects lysis of the amide bond of plasminogen in determining their "amidolytic plasmin activity."
The ability of unfractionated HMW-heparin to stimulate amidolytic plasmin activity of a mixture of Lys-plasminogen or Glu-plasminogen and t-PA was measured according to the protocol, previously published by the inventors herein in Biochemistry, 25, 4033 (1986) (hereinafter "the Biochemistry Paper").
To a buffered solution of 200 ul of 0.1M Tris-HCl, pH 8.1, 0.1% (V/V) Tween 80, 0.3 mM chromogenic plasmin substrate H-D-Val-Leu-Lys-pNA (S-2251, Kabi, Sweden) was added. To this mixture, HMW-heparin fractions (the Ca and Na salts, respectively) in concentrations ranging from 0 to 25 units/ml and 0.42 μM Glu- or Lys- plasminogen were added. […]
The solutions were incubated in microliter plates at 25° C. The change in absorbance (ΔA) at 405 nm was measured against blanks without t-PA in a Bio-Tek model EL-308 microplate reader.
It should be noted that plasmin activity was actually being measured in this assay and that the plasmin concentration was increasing as a function of time due to the action of the plasminogen activators on plasminogen. Thus, plots of absorbance vs. time are parabolic, whereas plots of absorbance vs. time squared are linear. Therefore, the slopes of plots of absorbance vs. time squared were used as a measure of the rate (VO) of plasmin generation. […]

T1 sequence (P00750 36-562): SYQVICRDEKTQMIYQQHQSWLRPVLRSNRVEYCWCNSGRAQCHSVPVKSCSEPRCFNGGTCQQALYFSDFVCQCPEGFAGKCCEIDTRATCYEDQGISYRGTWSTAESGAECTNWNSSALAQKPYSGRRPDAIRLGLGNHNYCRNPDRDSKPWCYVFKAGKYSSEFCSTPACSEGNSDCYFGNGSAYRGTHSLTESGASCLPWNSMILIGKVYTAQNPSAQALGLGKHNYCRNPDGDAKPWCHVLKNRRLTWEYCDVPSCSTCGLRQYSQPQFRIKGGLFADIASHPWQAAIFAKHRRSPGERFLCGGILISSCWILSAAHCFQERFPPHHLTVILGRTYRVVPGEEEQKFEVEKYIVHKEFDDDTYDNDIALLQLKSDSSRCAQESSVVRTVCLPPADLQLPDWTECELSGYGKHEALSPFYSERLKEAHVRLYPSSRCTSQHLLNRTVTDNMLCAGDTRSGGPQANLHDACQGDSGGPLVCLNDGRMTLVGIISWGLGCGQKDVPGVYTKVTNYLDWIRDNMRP

With `[Cl-].[Na+]` [NaCl] the “effect on amidolytic plasmin activity (plasmin generation) of t-PA-plasminogen mixture” value was “did not cause a marked decrease”.
